Assay [1] has as its system human platelet rich plasma. The experiment in a line: Inhibition of human platelet aggregation, "Born"-method in single cuvettes (ADP-induced, platelet rich plasma). The assay is classed as cell-based. The conditions noted are these: human PRP, aggregation induced by ADP, measured over 6 minutes at 37° C. The procedure:
Alternatively to a binding assay which measures a compound's ability to bind to the P2Y12 receptor, the effect on cellular function was also determined. This ability of the compound was evaluated in two platelet aggregation assays: in 96-well plates and with the “Born”-method using single cuvettes.
Whole blood was collected from healthy volunteers using 20 ml syringes containing 2 ml of buffered Citrate. The anticoagulated whole blood was transferred into 15 ml polypropylene conical tubes (10 ml per tube). The tubes were centrifuged for 15 minutes at 340×g at RT without using the centrifuge brake. This procedure leads to a pellet of cellular components and a supernatant of platelet rich plasma (PRP). The PRP layer was collected from each tube and pooled for each donor. To avoid carry over of cellular components following centrifugation, approximately 5 ml of PRP was left in the tube. The platelet concentration was determined using a Coulter Counter.
The 15 ml tubes containing the pellet of cellular components were centrifuged again for 10 minutes at 1940×g. This pelleted out most particulate blood constituents remaining, leaving a layer of Platelet Poor Plasma (PPP). The PPP was collected for each donor. The PRP layer, previously set aside, was diluted with PPP to a final concentration of approximately 3×E8 platelets/ml with the PPP.
The human platelet aggregation assay is performed in single use cuvettes using the platelet aggregation profiler (PAP-4 or -8, Bio/Data corporation).
In the assay cuvette 4 μl of test compound at 100× final concentration in DMSO is mixed with 392 μl fresh PRP and incubated for 2 minutes at 37° C. with 1.200 rpm stirring. Following that incubation period, 4 μl of 250 μM ADP is added to the reaction mix. This addition of ADP is sufficient to induce aggregation in the absence of an inhibitor. After that aggregation is measured over 6 minutes at 37° C. with 1.200 rpm stirring. Results of the assay are expressed as % inhibition, and are calculated using maximum aggregation (Tmax) or area under curve (AUC) of the absorbance over 6 minutes.

In another assay the target is human P2Y12 receptor (Homo sapiens (Human), UniProt Q9H244). The assay can be described thus: Human P2Y12 recombinant cell membrane binding assay with 33P 2MeS-ADP. The conditions noted are these: CHO cell membranes with recombinant human P2Y12; competition against 33P 2MeS-ADP. The procedure:
The ability of the compounds of the formula I to inhibit the P2Y12 receptor can be assessed by determining the concentration of the compound of the formula I that binds to the human P2Y12 Recombinant Cell Membrane Binding Assay with 33P 2MeS-ADP.
Human P2Y12 Recombinant Cell Membrane Binding Assay
The ability of a test compound to bind to the P2Y12 receptor was evaluated in a recombinant cell membrane binding assay. In this competitive binding assay, the test compound competed against a radiolabeled agonist for binding to the P2Y12 receptor, expressed on the cell membrane. Inhibition of binding of the labeled material was measured and correlated to the amount and potency of the test compound.
As source of P2Y12, a membrane preparation was prepared from Chinese Hamster Ovary (CHO) cells with recombinant expression of the human P2Y12 receptor according to standard procedures.
Next, wells were washed four times with 400 μl/well of stop buffer on a plate vacuum. The plate was disassembled and allowed to air dry overnight with the filter side up over night. […] The top of the filter plate was sealed with plastic plate covers. The sealed filter plate were incubated 2 hours at RT. A Microbeta Scintillation Counter was used to measure counts.
Compounds were diluted as 10 mM DMSO stocks and tested in a four-point, five-fold dilution series run in triplicate beginning at 10 μM, final concentration. Data were analyzed using a four-parameter curve fit with a fixed minimum and maximum experimentally defined as the average positive and negative controls on each plate.

The results in this text go back to US8669266B2, “Quinoline-carboxamide derivatives as P2Y12 antagonists” (Sanofi, priority 2007, dated 2014).

Chain of human P2Y12 receptor (Q9H244 whole entry): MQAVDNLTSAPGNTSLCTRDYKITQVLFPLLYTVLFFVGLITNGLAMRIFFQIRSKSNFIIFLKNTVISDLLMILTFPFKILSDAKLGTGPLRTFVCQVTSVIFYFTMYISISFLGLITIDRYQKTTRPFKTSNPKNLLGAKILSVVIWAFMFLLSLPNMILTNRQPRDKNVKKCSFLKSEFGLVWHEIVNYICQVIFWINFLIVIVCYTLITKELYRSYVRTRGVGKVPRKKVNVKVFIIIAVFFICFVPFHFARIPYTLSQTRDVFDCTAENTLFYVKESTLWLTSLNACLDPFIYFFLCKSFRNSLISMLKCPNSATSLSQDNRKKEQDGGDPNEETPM

As for “4-{2-[(7-Methyl-4-{2-oxo-2-[4-(pyrrolidine-1-carbonyl)-piperidin-1-yl]-ethoxy}-quinoline-2-carbonyl)-amino]-acetyl}-piperazine-1-carboxylic acid butyl ester [Example 660]”, the IC50 in assay [1] amounted to 94 nM. In turn, `CCOC(=O)N1CCN(C(=O)[C@H](CCC(=O)O)NC(=O)c2cc(OCC(=O)N3CCC[C@H]3C(=O)NC3CC3)c3ccc(C)cc3n2)CC1` [Example 3, 4-[(S)-4-Carboxy-2-({4-[2-((S)-2-cyclopropylcarbamoyl-pyrrolidin-1-yl)-2-oxo-ethoxy]-7-methyl-quinoline-2-carbonyl}-amino)-butyryl]-piperazine-1-carboxylic acid ethyl ester] gave an IC50 in assay [1] (Platelet, 0.1 h) of 180 nM. In the case of `CCOC(=O)[C@@H]1CCCN1C(=O)COc1cc(C(=O)N[C@@H](CCC(=O)O)C(=O)N2CCN(C(=O)OCC)CC2)nc2cc(C)ccc12` [Example 11, 4-[(S)-4-Carboxy-2-({4-[2-((S)-2-ethoxycarbonyl-pyrrolidin-1-yl)-2-oxo-ethoxy]-7-methyl-quinoline-2-carbonyl}-amino)-butyryl]-piperazine-1-carboxylic acid ethyl ester], the IC50 on human P2Y12 receptor amounted to 132 nM. Consider `CCOC(=O)N1CCN(C(=O)[C@H](CCC(=O)O)NC(=O)c2cc(OCC(=O)N3CCC[C@H]3C(=O)O)c3ccc(C)cc3n2)CC1` [Example 17, 4-[(S)-4-Carboxy-2-({4-[2-((S)-2-carboxy-pyrrolidin-1-yl)-2-oxo-ethoxy]-7-methyl-quinoline-2-carbonyl}-amino)-butyryl]-piperazine-1-carboxylic acid ethyl ester], for which, in assay [1] (Platelet, 0.1 h), the IC50 came out at 240 nM.

Regarding `CCOC(=O)N1CCN(C(=O)[C@H](CCC(=O)O)NC(=O)c2cc(OCC(=O)N3CCC(S(C)(=O)=O)C3)c3ccc(C)cc3n2)CC1` (stereo partly drawn) [Example 18, 4-[(S)-4-Carboxy-2-({4-[2-(3-methanesulfonyl-pyrrolidin-1-yl)-2-oxo-ethoxy]-7-methyl-quinoline-2-carbonyl}-amino)-butyryl]-piperazine-1-carboxylic acid ethyl ester], the midpoint of inhibition in assay [1] (Platelet, 0.1 h), the IC50, lay at 160 nM. `CCOC(=O)N1CCN(C(=O)[C@H](CCC(=O)O)NC(=O)c2cc(OCC(=O)N3CC[C@H](CO)C3)c3ccc(C)cc3n2)CC1` [Example 50, 4-[(S)-4-Carboxy-2-({4-[2-((S)-3-hydroxymethyl-pyrrolidin-1-yl)-2-oxo-ethoxy]-7-methyl-quinoline-2-carbonyl}-amino)-butyryl]-piperazine-1-carboxylic acid ethyl ester] gave an IC50 in assay [1] (Platelet, 0.1 h) of 590 nM. On the same count and under the same terms, the value for `CCOC(=O)N1CCN(C(=O)[C@H](CCC(=O)O)NC(=O)c2cc(OCC(=O)N3CC(O)CC3C(=O)OC)c3ccccc3n2)CC1` (stereo partly drawn) [Example 71, 4-[(S)-4-Carboxy-2-({4-[2-(4-hydroxy-2-methoxycarbonyl-pyrrolidin-1-yl)-2-oxo-ethoxy]-quinoline-2-carbonyl}-amino)-butyryl]-piperazine-1-carboxylic acid ethyl ester] was 310 nM; that for `CCOC(=O)[C@@H]1C[C@@H](O)CN1C(=O)COc1cc(C(=O)N[C@@H](CCC(=O)O)C(=O)N2CCN(C(=O)OCC)CC2)nc2ccccc12` [Example 75, 4-[(S)-4-Carboxy-2-({4-[2-((2S,4R)-2-ethoxycarbonyl-4-hydroxy-pyrrolidin-1-yl)-2-oxo-ethoxy]-quinoline-2-carbonyl}-amino)-butyryl]-piperazine-1-carboxylic acid ethyl ester] was 190 nM. As to `CCOC(=O)N1CCN(C(=O)[C@H](CCC(=O)O)NC(=O)c2cc(OCC(=O)N3CCC[C@H]3C(=O)NCC(F)(F)F)c3ccccc3n2)CC1` [Example 121, 4-{(S)-4-Carboxy-2-[(4-{2-oxo-2-[(S)-2-(2,2,2-trifluoro-ethylcarbamoyl)-pyrrolidin-1-yl]-ethoxy}-quinoline-2-carbonyl)-amino]-butyryl}-piperazine-1-carboxylic acid ethyl ester], the IC50 on human P2Y12 receptor came out at 67 nM.

Take `CCOC(=O)N1CCN(C(=O)[C@H](CCC(=O)O)NC(=O)c2cc(O[C@H](C)C(=O)N3CCC[C@H]3C(=O)NC3CCCC3)c3ccc(C)cc3n2)CC1` [Example 294, 4-[(S)-4-Carboxy-2-({4-[(R)-2-((S)-2-cyclopentylcarbamoyl-pyrrolidin-1-yl)-1-methyl-2-oxo-ethoxy]-7-methyl-quinoline-2-carbonyl}-amino)-butyryl]-piperazine-1-carboxylic acid ethyl ester]: the IC50 in assay [1] (Platelet, 0.1 h) stood at 30 nM. Regarding `CCOC(=O)N1CCN(C(=O)[C@H](CCC(=O)O)NC(=O)c2cc(OCC(=O)N3CCCC3c3ccco3)c3ccccc3n2)CC1` (stereo partly drawn) [Example 317, 4-[(S)-4-Carboxy-2-({4-[2-(2-furan-2-yl-pyrrolidin-1-yl)-2-oxo-ethoxy]-quinoline-2-carbonyl}-amino)-butyryl]-piperazine-1-carboxylic acid ethyl ester], the IC50 in assay [1] (Platelet, 0.1 h) was found to be 290 nM. The same measure, in the same setting: as for `CCCCOC(=O)N1CCN(C(=O)CNC(=O)c2cc(OCC(=O)N3CCC[C@H]3C(=O)NC3CCC3)c3ccc(C)cc3n2)CC1` [Example 435, 4-[2-({4-[2-((S)-2-Cyclobutylcarbamoyl-pyrrolidin-1-yl)-2-oxo-ethoxy]-7-methyl-quinoline-2-carbonyl}-amino)-acetyl]-piperazine-1-carboxylic acid butyl ester], the figure is 30 nM; as for `CCCCOC(=O)N1CCN(C(=O)[C@H](CCC(=O)O)NC(=O)c2cc(OCC(=O)N3CCC[C@H]3c3ccccc3)c3ccc(C)cc3n2)CC1` [Example 481, 4-[(S)-4-Carboxy-2-({7-methyl-4-[2-oxo-2-((S)-2-phenyl-pyrrolidin-1-yl)-ethoxy]-quinoline-2-carbonyl}-amino)-butyryl]-piperazine-1-carboxylic acid butyl ester], 80 nM; as for `CCCCOC(=O)N1CCN(C(=O)[C@H](CCOC)NC(=O)c2cc(OCC(=O)N3CCC[C@H]3C(=O)NC3CCC3)c3ccc(C)cc3n2)CC1` [Example 521, 4-[(S)-2-({4-[2-((S)-2-Cyclobutylcarbamoyl-pyrrolidin-1-yl)-2-oxo-ethoxy]-7-methyl-quinoline-2-carbonyl}-amino)-4-methoxy-butyryl]-piperazine-1-carboxylic acid butyl ester], 120 nM.

In the case of `CCCCOC(=O)N1CCN(C(=O)CNC(=O)c2cc(OCC(=O)N3CCC[C@H]3C(=O)NC3CCCC3)c3ccc(C)cc3n2)CC1` [Example 594, 4-[2-({4-[2-((S)-2-Cyclopentylcarbamoyl-pyrrolidin-1-yl)-2-oxo-ethoxy]-7-methyl-quinoline-2-carbonyl}-amino)-acetyl]-piperazine-1-carboxylic acid butyl ester], the half-inhibitory concentration (IC50) in assay [1] (Platelet, 0.1 h) came out at 20 nM. In turn, `CCCCOC(=O)N1CCN(C(=O)CNC(=O)c2cc(OCC(=O)N3C[C@H](O)C[C@H]3C(=O)NC3CCC3)c3ccc(C)cc3n2)CC1` [Example 689, 4-[2-({4-[2-((2S,4R)-2-Cyclobutylcarbamoyl-4-hydroxy-pyrrolidin-1-yl)-2-oxo-ethoxy]-7-methyl-quinoline-2-carbonyl}-amino)-acetyl]-piperazine-1-carboxylic acid butyl ester] yielded an IC50 in assay [1] (Platelet, 0.1 h) of 0.6 nM. Still for that read-out and setting: the value for `CCCCOC(=O)N1CCN(C(=O)[C@H](CCc2nnn(C)n2)NC(=O)c2cc(OCC(=O)N3CCC[C@H]3C(=O)NC3CCC3)c3ccc(C)cc3n2)CC1` [Example 693, 4-[(S)-2-({4-[2-((S)-2-Cyclobutylcarbamoyl-pyrrolidin-1-yl)-2-oxo-ethoxy]-7-methyl-quinoline-2-carbonyl}-amino)-4-(2-methyl-2H-tetrazol-5-yl)-butyryl]-piperazine-1-carboxylic acid butyl ester] was 77 nM.
